Laboratory results from patent US20190256930A1, “BIOMARKERS FOR DETERMINING RESPONSIVENESS TO LSD1 INHIBITORS” (ORYZON GENOMICS, S.A., priority 2016, published 2019).
Several values for one entry are separate records, joined by “and”; a condition that tells them apart may be missing. Equal entries are not always repeated.

Tests used:
Assay type in all cases: in vivo, human
S100A12 [1] = assay: Gene expression by qRT-PCR in peripheral blood of acute leukemia patients; conditions: individual patients
blast cells = assay: Clinical response: morphological blast differentiation and blast counts in smears of bone marrow aspirate and/or peripheral blood, Phase I extension cohort
Excerpt: As part of a Phase I clinical study assessing the human pharmacokinetics and safety of ORY-1001 in acute leukemia patients, an extension cohort of 14 patients (mean age 57; range 30-78, gender 8M/6F) was opened in order to provide a preliminary assessment of efficacy. A summary of the patients recruited in this extension cohort can be found in Table 1.
Preliminary clinical efficacy endpoints included (a) morphological blast differentiation and (b) decrease in blast %. In addition, gene expression determinations of selected markers were performed.
Each patient received ORY-1001 for oral intake as a solution at a dose of 140 microgram/m2/day (as free base) q.d., during 5 consecutive days with 2 days of rest, for 4 cycles (total of 28 days), or until disease progression or unacceptable toxicity was observed.
For the evaluation of the morphological blast differentiation and blast counts, smears of bone marrow aspirate and/or peripheral blood were prepared, stained by the May-Grünwald-Giemsa method, and microscopically examined in accordance with ICSH guidelines (ICSH guidelines for the standardization of bone marrow specimens and reports, Lee S H, Erber W N, Porwit A, Tomonaga M, Peterson L C; International Council for Standardization In Hematology, International journal of laboratory hematology 2008 October; 30(5):349-64).

CAMSAP2 = assay: Gene expression by qRT-PCR in peripheral blood of acute leukemia patients; conditions: individual patients, within 98 and 168 h after first dose, relative to HPRT1 and pre-dose, negative = up-regulation
Experimental: (§1) Plasma for pharmacokinetic determinations was separated by centrifugation. The remaining cell volume was resuspended in 2 mL PBS and an aliquot of […] was stabilized in a PAXgene® Blood RNA tube as described by the vendor and kept frozen for subsequent RNA extraction and qRT-PCR.
(§2) RNA extraction was performed using PAXgene® Blood RNA Kit (PreAnalytix) as described by the vendor. RNA quality was assessed using an Agilent 2100 Bioanalyzer™ and quantity was measured using a NanoDrop™ spectrophotometer.
(§3) An amount of 0.5 micrograms of total RNA was reverse transcribed to obtain 1st strand cDNA (iScript® Reverse Transcription Supermix for RTqPCR; Bio-Rad).
(§4) Gene expression was analyzed by qRT-PCR, a variant of the PCR (Polymerase Chain Reaction) method that permits the simultaneous exponential amplification and detection of specific cDNA fragments. Taqman gene expression assays were used, which employ the principle of doubly labeled hydrolysis probes marked with a fluorescent moiety at their 5′ end and with a quencher moiety at the 3′ end, which prevents the generation of fluorescence according to the Förster energy transfer principle.
(§5) In the exponential phase of the amplification reaction, the intensity of the fluorescence is directly proportional to the quantity of PCR product formed. The LightCycler® 480 Software determines the “crossing point” (Cp), i.e. the point where the reaction's fluorescence reaches the maximum of the second derivative of the amplification curve, which corresponds to the point where the acceleration of the fluorescence signal is at its maximum. The Cp values reflect the target mRNA concentration in the original RNA sample. Differences in Cp values (ΔCp) for a gene X of interest in a given sample relative to a control sample reflect changes in mRNA concentration of the gene X in a given amount of total RNA in the respective sample, and are calculated as:
(§6) ΔΔCp, gene X=[Cp(sample, gene X)−Cp(sample, reference gene)]−[Cp(control, gene X)−Cp(control, reference gene)]
(§7) The fold change in mRNA concentration is calculated as 2^−ΔΔCp, a negative ΔΔCp representing an increase in the expression level, and vice versa.
(§8) An amount of 0.5 micrograms of the 1st strand product was used to perform qRT-PCR reactions in triplicate (Taqman® gene expression assay, Life technologies, see Table 3) in a Roche LightCycler®480. In order to analyze the changes in the expression levels of ANXA2, CAMSAP2, CD86, CRISP9, CTSG, GPR65, ITGAM, LY96, LYZ, S100A12, VCAN, and VIM, ΔΔCp values for a given patient and time point were calculated as described above, relative to the endogenous reference gene HPRT1 and to a control sample obtained from the same patient at pre-dose (i.e. prior to administration of the first dose of ORY-1001 to said patient).
(§9) For the analysis of the gene expression data, the time point (or time interval) showing the maximum response is typically selected. This time point/interval may change depending on the specific dose, administration scheme, etc. In the present study, all the gene expression and correlation analysis was performed by using the data obtained after administration of day 5, i.e. within the time interval between 98 and 168 h after the first dose. The maximum response observed within this time interval is referred to in the tables herein as “Maximum response (ΔΔCp) on day 5”.

CTSG = assay: as above; conditions: individual patients, within 98 and 168 h after first dose, relative to HPRT1 and pre-dose, negative = up-regulation
Experimental: as §1, §2, §3, §4, §5, §6, §7, §8, §9

VIM = assay: as above; conditions: individual patients, within 98 and 168 h after first dose, relative to HPRT1 and pre-dose, negative = up-regulation
Experimental: as §1, §2, §3, §4, §5, §6, §7, §8, §9

S100A12 [2] = assay: as above; conditions: individual patients, within 98 and 168 h after first dose, relative to HPRT1 and pre-dose, negative = up-regulation
Experimental: as §1, §2, §3, §4, §5, §6, §7, §8, §9

VCAN = assay: as above; conditions: individual patients, within 98 and 168 h after first dose, relative to HPRT1 and pre-dose, negative = up-regulation
Experimental: as §1, §2, §3, §4, §5, §6, §7, §8, §9

Ly96 = assay: as above; conditions: individual patients, within 98 and 168 h after first dose, relative to HPRT1 and pre-dose, negative = up-regulation
Experimental: as §1, §2, §3, §4, §5, §6, §7, §8, §9

ANXA2 = assay: as above; conditions: individual patients, within 98 and 168 h after first dose, relative to HPRT1 and pre-dose, negative = up-regulation
Experimental: as §1, §2, §3, §4, §5, §6, §7, §8, §9

ITGAM = assay: as above; conditions: individual patients, within 98 and 168 h after first dose, relative to HPRT1 and pre-dose, negative = up-regulation
Experimental: as §1, §2, §3, §4, §5, §6, §7, §8, §9

LYZ = assay: as above; conditions: individual patients, within 98 and 168 h after first dose, relative to HPRT1 and pre-dose, negative = up-regulation
Experimental: as §1, §2, §3, §4, §5, §6, §7, §8, §9

GPR65 [3] = assay: as above; conditions: individual patients, within 98 and 168 h after first dose, relative to HPRT1 and pre-dose, negative = up-regulation
Experimental: as §1, §2, §3, §4, §5, §6, §7, §8, §9

CD86 = assay: as above; conditions: individual patients, within 98 and 168 h after first dose, relative to HPRT1 and pre-dose, negative = up-regulation
Experimental: as §1, §2, §3, §4, §5, §6, §7, §8, §9

[4] = tested on: S100A12, VCAN, ITGAM, LY96, ANXA2, CD86, GPR65, CRISP9, LYZ, and VIM; assay: Correlation of marker gene expression (qRT-PCR, peripheral blood) with response to ORY-1001; conditions: day 5
Experimental: as §8, §9
Possible correlations between expression changes in marker genes described in table 5 and response to ORY-1001 treatment (see Table 2) were investigated.
The expression levels of Ly96 and ITGAM did additionally correlate with the variation of blast cells in bone marrow (see FIGS. 1A and 1B), particularly in M4/M5 subtypes, further supporting the utility of these marker genes in monitoring response to ORY-1001 treatment in easily accessible samples such as peripheral blood.

GPR65 [5] = assay: Gene expression by qRT-PCR in peripheral blood of acute leukemia patients; conditions: individual patients
S100A12 and VCAN = S100A12 and VCAN gene expression in patients developing a differentiation syndrome; conditions: patients developing a differentiation syndrome (Patients 01 and 09); within 98 and 168 h after the first dose
Experimental: as §8
For the analysis of the gene expression data, the time point (or time interval) showing the maximum response is typically selected. This time point/interval may change depending on the specific dose, administration scheme, etc. In the present study, all the gene expression and correlation analysis was performed by using the data obtained after administration of day 5, i.e. within the time interval between 98 and 168 h after the first dose. The maximum response observed within this time interval is referred to in the tables herein as “Maximum response (ΔΔCp) on day 5”. […]

[6] = within 602 and 768 h after the first administration
[7] = within first 24 h after the first administration
[8] = peripheral blood and/or bone marrow, extension cohort of 14 patients, all four FAB subtypes
[9] = patients showing both blast morphological differentiation and a decrease in blast cells, particularly M4/M5
[10] = patients showing no morphological differentiation and/or no effect or increase in blast cells

N[C@H]1CC[C@H](N[C@@H]2C[C@H]2c2ccccc2)CC1 [ORY-1001, (trans)-N1-((1R,2S)-2-phenylcyclopropyl)cyclohexane-1,4-diamine]
S100A12 Day 26 maximum response (S100A12 [1]; [6]): −7.1 ΔΔCp and −2.8 ΔΔCp | S100A12 Day 1 maximum response (S100A12 [1]; [7]): −2.1 ΔΔCp and −0.4 ΔΔCp | % Blast variation (peripheral blood) (blast cells; individual patients, peripheral blood, variation of blast % between pre- and post-treatment (day 7 to 29), 140 microgram/m2/day oral): ↓ −32% (peripheral blood) and ↓ −55% (peripheral blood) ^e and =(peripheral blood) and ↓ −55% and = | patients with decrease in blast cells (blast cells; [8]): 6/14 | patients with morphologic blast differentiation (blast cells; [8]): 5/14 | Maximum response (ΔΔCp) on day 5, CAMSAP2 (CAMSAP2): −2.8 ΔΔCp and −1.9 ΔΔCp and 1.2 ΔΔCp and 3.1 ΔΔCp and 1.6 ΔΔCp and −3.7 ΔΔCp and −4.3 ΔΔCp and −2.5 ΔΔCp and −2.3 ΔΔCp and −3.0 ΔΔCp and −2.9 ΔΔCp and −1.4 ΔΔCp | Maximum response (ΔΔCp) on day 5, CTSG (CTSG): 2.3 ΔΔCp and 3.9 ΔΔCp and 3.3 ΔΔCp and 1.8 ΔΔCp and 2.2 ΔΔCp and −1.8 ΔΔCp and 7.6 ΔΔCp and −3.6 ΔΔCp and −1.7 ΔΔCp and −2.5 ΔΔCp and −0.7 ΔΔCp | Maximum response (ΔΔCp) on day 5, VIM (VIM): −1.2 ΔΔCp and −1.3 ΔΔCp and −0.5 ΔΔCp and 2.2 ΔΔCp and 1.7 ΔΔCp and −2.4 ΔΔCp and −3.4 ΔΔCp and −2.2 ΔΔCp and −0.4 ΔΔCp and 1.3 ΔΔCp and −0.6 ΔΔCp | Maximum response (ΔΔCp) on day 5, S100A12 (S100A12 [2]): −4.5 ΔΔCp and −1.7 ΔΔCp and 1.7 ΔΔCp and 1.3 ΔΔCp and 2.7 ΔΔCp and −5.0 ΔΔCp and 3.0 ΔΔCp and 0.8 ΔΔCp and 2.4 ΔΔCp and 2.0 ΔΔCp and 2.1 ΔΔCp and 3.9 ΔΔCp and −2.1 ΔΔCp | Maximum response (ΔΔCp) on day 5, VCAN (VCAN): 2.2 ΔΔCp and 2.0 ΔΔCp and −0.8 ΔΔCp and −9.1 ΔΔCp and 1.8 ΔΔCp and 3.4 ΔΔCp and −2.2 ΔΔCp and −2.1 ΔΔCp and −4.2 ΔΔCp and −1.2 ΔΔCp and 1.6 ΔΔCp and 1.2 ΔΔCp | Maximum response (ΔΔCp) on day 5, Ly96 (Ly96): −1.6 ΔΔCp and −2.9 ΔΔCp and 2.3 ΔΔCp and −3.3 ΔΔCp and 3.0 ΔΔCp and −4.3 ΔΔCp and −3.1 ΔΔCp and −4.8 ΔΔCp and 2.4 ΔΔCp and −3.2 ΔΔCp and −5.1 ΔΔCp and −4.1 ΔΔCp and −1.5 ΔΔCp | Maximum response (ΔΔCp) on day 5, ANXA2 (ANXA2): 2.0 ΔΔCp and −1.1 ΔΔCp and −2.6 ΔΔCp and 1.9 ΔΔCp and −1.9 ΔΔCp and −2.0 ΔΔCp and −3.8 ΔΔCp and −1.6 ΔΔCp and −1.4 ΔΔCp and 3.2 ΔΔCp | Maximum response (ΔΔCp) on day 5, ITGAM (ITGAM): 1.7 ΔΔCp and 1.6 ΔΔCp and 2.1 ΔΔCp and −2.3 ΔΔCp and 3.0 ΔΔCp and 3.1 ΔΔCp and −1.3 ΔΔCp and 3.2 ΔΔCp and −3.0 ΔΔCp and −3.7 ΔΔCp and −2.8 ΔΔCp and 1.8 ΔΔCp | Maximum response (ΔΔCp) on day 5, LYZ (LYZ): 2.9 ΔΔCp and 3.2 ΔΔCp and −1.2 ΔΔCp and 1.7 ΔΔCp and −2.3 ΔΔCp and 2.5 ΔΔCp and −2.2 ΔΔCp and −3.9 ΔΔCp and −0.6 ΔΔCp and 2.4 ΔΔCp and 1.2 ΔΔCp | Maximum response (ΔΔCp) on day 5, GPR65 (GPR65 [3]): −1.8 ΔΔCp and −1.4 ΔΔCp and −1.3 ΔΔCp and −3.8 ΔΔCp and 3.1 ΔΔCp and −0.9 ΔΔCp and 2.3 ΔΔCp and −4.8 ΔΔCp and −3.0 ΔΔCp and −2.3 ΔΔCp and 4.4 ΔΔCp and −1.5 ΔΔCp | Maximum response (ΔΔCp) on day 5, CD86 (CD86): −1.8 ΔΔCp and 2.2 ΔΔCp and 2.5 ΔΔCp and −2.9 ΔΔCp and −3.0 ΔΔCp and −2.0 ΔΔCp and −3.3 ΔΔCp and 0.8 ΔΔCp and −4.4 ΔΔCp and −2.5 ΔΔCp and −2.8 ΔΔCp and 1.3 ΔΔCp | up-regulation of the gene markers (fold) [4, 9]: 1.3 to 550 fold | up-regulation of the gene markers (ΔΔCp) [4, 9]: −0.4 to −9.1 ΔΔCp | down-regulation of some of the genes (fold change) [4, 10]: 0.6 to 0.05 fold | down-regulation of some of the genes (ΔΔCp) [4, 10]: 0.8 to 4.4 ΔΔCp | GPR65 Day 26 maximum response (GPR65 [5]; [6]): −3.2 ΔΔCp and −4.8 ΔΔCp | GPR65 Day 1 maximum response (GPR65 [5]; [7]): 2.2 ΔΔCp and −1.1 ΔΔCp | S100A12 and VCAN exacerbated up-regulation (fold) (S100A12 and VCAN): 18 to 550 fold | S100A12 and VCAN exacerbated up-regulation (ΔΔCp) (S100A12 and VCAN): −4.2 to −9.1 ΔΔCp
